According to article PMC7584476, “Safety and efficacy of BAY1436032 in IDH1-mutant AML: phase I study results” (Leukemia, 2020):

System: subjects with mIDH1 advanced AML
Assay: Phase I study: safety and tolerability (TEAE, DLT, MTD, ECG)
Assay type: in vivo
Protocol: This study was an open-label, nonrandomized, multicenter phase I trial. Subjects were screened at 13 hospital sites in 2 countries (USA and Germany). The study was to consist of dose-escalation followed by dose-expansion. The MTD identified in dose-escalation was to be used in the dose-expansion. If MTD was not reached in dose-escalation, a dose for the expansion would be selected based on available PK, pharmacodynamic, safety, and efficacy data. BAY1436032 was administered twice-daily (BID) in continuous 28-day cycles. In dose-escalation, up to 9 evaluable subjects could be enrolled per cohort, with a minimum of 3 dose-limiting toxicity (DLT)-free evaluable subjects required prior to escalating to the next highest dose. Bayesian dose-DLT modeling was performed to help guide dosing decisions.
DLTs were differentially defined for nonhematopoietic versus hematopoietic toxicities. Nonhematopoietic toxicities of ≥grade 3 occurring during the first cycle of treatment were to be considered DLTs with the following exceptions: (1) Alopecia and nausea controlled by medical management; (2) Tumor lysis syndrome if successfully managed clinically and resolved within 7 days without any end-organ damage; (3) Differentiation syndrome (DS) if successfully managed clinically and resolved within 7 days without any end-organ damage; (4) Asymptomatic ≥grade 3 electrolyte abnormalities not considered clinically significant by the investigator. […] For certain toxicities such as laboratory assessments without a clear clinical correlate, a discussion between the investigator and the sponsor determined whether the adverse event (AE) should be assessed as a DLT.
DLTs identified during the first cycle of treatment were used to guide dose-escalation decisions and to determine the MTD, and if safety issues appeared in subsequent cycles they were also to be considered. Hydroxyurea was permitted during the first cycle if white blood cell (WBC) exceeded 20 × 10^9/L and was also permitted for treatment of DS.
Safety and tolerability were evaluated by analysis of adverse events, physical examinations, vital signs, ECOG performance status, and various laboratory assessments. For safety monitoring, subjects were scheduled for clinic visits every week for the initial three cycles of treatment, after which time visits could be reduced to every-other-week with investigator and sponsor agreement. Cardiac function was assessed with triplicate 12-lead electrocardiograms (ECG) at screening, C1-D1, C1-D2, C1-D15, D1 of every subsequent cycle, and at treatment end. […] AEs are presented by the Medical Dictionary for Regulatory Activities (MedDRA) v21.1.

## C[C@H]1C[C@@H](n2c(Nc3ccc(OC(F)(F)F)cc3)nc3cc(CCC(=O)O)ccc32)CC(C)(C)C1 [BAY1436032]
1200 mg BID, n=7
  TEAE Hypokalaemia Grade 1: 1
  TEAE Hypokalaemia Grade 2: 0
  TEAE Hypokalaemia Grade 3: 0
  TEAE Hyponatraemia Grade 1: 0
  TEAE Hyponatraemia Grade 3: 0
  TEAE Hypophosphataemia Grade 1: 0
  TEAE Hypophosphataemia Grade 2: 0
  TEAE Leukocytosis Grade 2: 1
  TEAE Leukocytosis Grade 3: 0
  TEAE Lung infection Grade 3: 1
  TEAE Lung infection Grade 5: 0
  TEAE Nausea Grade 1: 2
  TEAE Nausea Grade 2: 0
  TEAE Nausea Grade 3: 0
  TEAE Oedema peripheral Grade 1: 2
  TEAE Oedema peripheral Grade 3: 0
  TEAE Pain in extremity Grade 1: 1
  TEAE Pain in extremity Grade 2: 0
  TEAE Pneumonia Grade 1: 0
  TEAE Pneumonia Grade 2: 1
  TEAE Pneumonia Grade 3: 1
  TEAE Pneumonia fungal Grade 2: 0
  TEAE Pneumonia fungal Grade 3: 0
  TEAE Pneumonia fungal Grade 4: 0
  TEAE Productive cough Grade 1: 1
  TEAE Productive cough Grade 2: 0
  TEAE Pyrexia Grade 1: 1
  TEAE Pyrexia Grade 2: 0
  TEAE Pyrexia Grade 3: 0
  TEAE Rash Grade 1: 1
  TEAE Rash Grade 2: 0
  TEAE Sepsis Grade 4: 0
  TEAE Sepsis Grade 5: 0
  TEAE Sinus tachycardia Grade 1: 0
  TEAE Thrombocytopenia Grade 4: 1
  TEAE Vomiting Grade 1: 0
  TEAE Weight decreased Grade 1: 1
  TEAE Weight decreased Grade 2: 2
  TEAE Weight decreased Grade 3: 0
1500 mg BID, n=9
  Related TEAE Decreased appetite Grade 1: 0
  Related TEAE Decreased appetite Grade 2: 0
  Related TEAE Diarrhea Grade 2: 0
  Related TEAE Differentiation syndrome Grade 2: 1
  Related TEAE Differentiation syndrome Grade 3: 0
  Related TEAE Dyspnea Grade 1: 0
  Related TEAE Dyspnea Grade 2: 0
  Related TEAE Fatigue Grade 1: 0
  Related TEAE Fatigue Grade 2: 0
  Related TEAE Fatigue Grade 3: 1
  Related TEAE Hypomagnesaemia Grade 1: 1
  Related TEAE Nausea Grade 1: 1
  Related TEAE Nausea Grade 2: 0
  Related TEAE Sinus tachycardia Grade 1: 1
  Related TEAE Vomiting Grade 1: 1
  TEAE Abdominal pain upper Grade 1: 2
  TEAE Abdominal pain upper Grade 2: 1
  TEAE Acute kidney injury Grade 1: 0
  TEAE Acute kidney injury Grade 2: 0
  TEAE Acute kidney injury Grade 3: 0
  TEAE Anaemia Grade 3: 0
  TEAE Anaemia Grade 4: 0
  TEAE Anxiety Grade 1: 0
  TEAE Anxiety Grade 2: 1
  TEAE Arthralgia Grade 1: 1
  TEAE Arthralgia Grade 2: 1
  TEAE Constipation Grade 1: 3
  TEAE Constipation Grade 2: 0
  TEAE Contusion Grade 1: 1
  TEAE Contusion Grade 2: 1
  TEAE Cough Grade 1: 0
  TEAE Cough Grade 2: 1
  TEAE Decreased appetite Grade 1: 2
  TEAE Decreased appetite Grade 2: 1
  TEAE Decreased appetite Grade 3: 1
  TEAE Diarrhea Grade 1: 2
  TEAE Diarrhea Grade 2: 1
  TEAE Dry skin Grade 1: 1
  TEAE Dyspnoea Grade 1: 1
  TEAE Dyspnoea Grade 2: 0
  TEAE Dyspnoea Grade 3: 1
  TEAE Epistaxis Grade 1: 2
  TEAE Epistaxis Grade 2: 0
  TEAE Epistaxis Grade 3: 0
  TEAE Fall Grade 1: 2
  TEAE Fatigue Grade 1: 1
  TEAE Fatigue Grade 2: 1
  TEAE Fatigue Grade 3: 2
  TEAE Febrile neutropenia Grade 3: 2
  TEAE General physical health deterioration Grade 3: 2
  TEAE General physical health deterioration Grade 5: 1
  TEAE Gingivitis Grade 1: 0
  TEAE Haematuria Grade 1: 0
  TEAE Haematuria Grade 2: 0
  TEAE Haematuria Grade 3: 1
  TEAE Headache Grade 1: 0
  TEAE Headache Grade 2: 0
  TEAE Headache Grade 3: 1
  TEAE Hyperkalaemia Grade 1: 0
  TEAE Hyperkalaemia Grade 4: 0
  TEAE Hypertension Grade 2: 2
  TEAE Hypertension Grade 3: 0
  TEAE Hyperuricaemia Grade 1: 1
  TEAE Hyperuricaemia Grade 3: 0
  TEAE Hypokalaemia Grade 1: 0
  TEAE Hypokalaemia Grade 2: 1
  TEAE Hypokalaemia Grade 3: 1
  TEAE Hyponatraemia Grade 1: 0
  TEAE Hyponatraemia Grade 3: 1
  TEAE Hypophosphataemia Grade 1: 1
  TEAE Hypophosphataemia Grade 2: 1
  TEAE Leukocytosis Grade 2: 0
  TEAE Leukocytosis Grade 3: 1
  TEAE Lung infection Grade 3: 0
  TEAE Lung infection Grade 5: 0
  TEAE Nausea Grade 1: 1
  TEAE Nausea Grade 2: 1
  TEAE Nausea Grade 3: 2
  TEAE Oedema peripheral Grade 1: 0
  TEAE Oedema peripheral Grade 3: 1
  TEAE Pain in extremity Grade 1: 0
  TEAE Pain in extremity Grade 2: 1
  TEAE Pneumonia Grade 1: 1
  TEAE Pneumonia Grade 2: 0
  TEAE Pneumonia Grade 3: 1
  TEAE Pneumonia fungal Grade 2: 1
  TEAE Pneumonia fungal Grade 3: 1
  TEAE Pneumonia fungal Grade 4: 1
  TEAE Productive cough Grade 1: 0
  TEAE Productive cough Grade 2: 1
  TEAE Pyrexia Grade 1: 2
  TEAE Pyrexia Grade 2: 0
  TEAE Pyrexia Grade 3: 3
  TEAE Rash Grade 1: 0
  TEAE Rash Grade 2: 2
  TEAE Sepsis Grade 4: 0
